In US11629171B2, “Beta-hairpin peptidomimetics” (POLYPHOR AG, priority 2017, dated 2023):
≈ marks a conversion by molar mass, not a printed value. Where a SMILES comes first, the peptide text is derived from it. Bridges are numbered along the chain shown (N, C = ends). Roman numbers before positions name the chains, in order. [ ]: non-standard residue; d: D form. The star is where a group is joined. Pen = CC(C)(S)[C@H](N)C(=O)O; Tle = CC(C)(C)[C@H](N)C(=O)O; Hiv = CC(C)[C@H](O)C(=O)O; dDab = NCC[C@@H](N)C(=O)O; hSer = N[C@@H](CCO)C(=O)O; NHCH(CH2OH)2 = OCC(CO)N*; Orn = NCCC[C@H](N)C(=O)O; Dab = NCC[C@H](N)C(=O)O; Abu = CC[C@H](N)C(=O)O; Dap = NC[C@H](N)C(=O)O

Assays:
Assay type in all cases: cell-based
[1] = test system: human red blood cells (hRBC); test: Hemolysis; conditions: red cells of human, 1 h, 200
In short: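 Percent lysis of human red cells was derived from OD540 of the supernatant, referenced to 2% Triton X-100, after a 1 h, 37° C incubation of 20% (v/v) cells with 200 μg/mL peptide.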

[2] = test system: Pseudomonas aeruginosa ATCC 27853; conditions: ATCC 27853
In short: (§1)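 Cation-adjusted MH-II broth, 0.002% polysorbate 80, inoculum near 10^6 CFU/mL. MIC read visually after 18-20 h, 35° C; units μg/mL.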

[3] = test system: Acinetobacter baumannii DSM 30008; conditions: DSM 30008
In short: as §1

[4] = test system: Klebsiella pneumoniae SSI #3010; conditions: SSI #3010
In short: as §1

Escherichia coli 926415 = conditions: 926415
In short: as §1

[5] = test system: Escherichia coli ATCC 25922; conditions: ATCC 25922
In short: as §1

[6] = test system: Acinetobacter baumannii 872842; conditions: 872842
In short: as §1

[7] = test system: Klebsiella pneumoniae 968733; conditions: 968733
In short: as §1

[8] = test system: Enterobacter cloacae 848840; conditions: 848840
In short: as §1

MIC [2] [µg/mL]	MIC [3] [µg/mL]	MIC [4] [µg/mL]	MIC (Escherichia coli 926415) [µg/mL]	MIC [5] [µg/mL]	MIC [6] [µg/mL]	MIC [7] [µg/mL]	MIC [8] [µg/mL]	Pseudomonas aeruginosa ATCC 27853 MIC [2] [µg/mL]	Acinetobacter baumannii DSM 30008 MIC [3] [µg/mL]	Klebsiella pneumoniae SSI #3010 MIC [4] [µg/mL]	Escherichia coli ATCC 25922 MIC [5] [µg/mL]	Compound	Hemolysis at 200 μg/mL [1] [%]
0.125 (≈ 0.0506 µM)	0.0625 (≈ 0.0253 µM)	0.125 (≈ 0.0506 µM)	0.125 (≈ 0.0506 µM)	0.0625 (≈ 0.0253 µM)	0.0625 (≈ 0.0253 µM)	0.25 (≈ 0.101 µM)	0.125 (≈ 0.0506 µM)	–	–	–	–	CC(=O)N[C@H](C(=O)N[C@H](C(=O)N[C@@H](Cc1ccc(O)cc1)C(=O)N[C@H]1CSSC(C)(C)[C@@H](C(=O)N[C@H](C(=O)N[C@H](C(=O)N[C@H](C(N)=O)[C@@H](C)O)[C@@H](C)O)C(C)(C)C)NC(=O)[C@H](Cc2c[nH]c3ccccc23)NC(=O)[C@H](CO)NC(=O)[C@@H](CCN)NC(=O)[C@H](CCC(=O)N[C@@H](CCN)C(=O)N[C@H](C(=O)N[C@@H](CN)C(=O)N[C@H]2CCNC(=O)[C@H]([C@@H](C)O)NC(=O)[C@H](CCN)NC(=O)[C@H](CCN)NC(=O)[C@H](CC(C)C)NC(=O)[C@@H](CC(C)C)NC(=O)[C@H](CCN)NC2=O)[C@@H](C)O)NC1=O)[C@@H](C)O)C(C)C [Ex. 221] (I: Ac-VTYCE[dDab]SW[Pen][Tle]TT-NH2 / II: [Dab]T[Dap][Dab][Dab][dL]L[Dab][Dab]T; disulfide I:4-I:9; amide I:5-II:N; lactam II:4-II:C)	2
–	–	–	0.25 (≈ 0.103 µM)	–	0.0625 (≈ 0.0258 µM)	0.25 (≈ 0.103 µM)	0.125 (≈ 0.0515 µM)	0.125	0.03125	0.0625	0.03125	CC(=O)N[C@H](C(=O)N[C@H]1CSSC[C@@H](C(=O)N[C@@H](CO)C(N)=O)NC(=O)[C@H](C(C)C)NC(=O)[C@H](CO)NC(=O)[C@H](Cc2c[nH]c3ccccc23)NC(=O)[C@H](CCC(=O)N[C@@H](CCN)C(=O)N[C@H](C(=O)N[C@@H](CN)C(=O)N[C@H]2CCNC(=O)[C@H]([C@@H](C)O)NC(=O)[C@H](CCN)NC(=O)[C@H](CCN)NC(=O)[C@H](CC(C)C)NC(=O)[C@@H](CC(C)C)NC(=O)[C@H](CCN)NC2=O)[C@@H](C)O)NC(=O)[C@@H](CCN)NC(=O)[C@H](CCCN)NC(=O)[C@H]([C@@H](C)O)NC(=O)[C@H](Cc2ccc(O)cc2)NC1=O)C(C)C [Ex. 355] (I: Ac-VCYT[Orn][dDab]EWSVCS-NH2 / II: [Dab]T[Dap][Dab][Dab][dL]L[Dab][Dab]T; disulfide I:2-I:11; amide I:7-II:N; lactam II:4-II:C)	6
0.125 (≈ 0.0524 µM)	0.0625 (≈ 0.0262 µM)	0.125 (≈ 0.0524 µM)	0.5 (≈ 0.21 µM)	0.03125 (≈ 0.0131 µM)	0.125 (≈ 0.0524 µM)	1 (≈ 0.419 µM)	0.125 (≈ 0.0524 µM)	–	–	–	–	CC(C)C[C@@H]1NC(=O)[C@@H](CC(C)C)NC(=O)[C@H](CCN)NC(=O)[C@@H](NC(=O)[C@H](CCN)NC(=O)[C@@H](NC(=O)[C@H](CCN)NC(=O)CC[C@@H]2NC(=O)[C@@H](NC(=O)[C@H](Cc3ccc(O)cc3)NC(=O)[C@@H](NC(=O)[C@@H](N)C(C)C)[C@@H](C)O)CSSC[C@@H](C(=O)N[C@H](C(=O)N[C@@H](C)C(=O)N[C@@H](CO)C(N)=O)C(C)(C)C)NC(=O)[C@H](Cc3c[nH]c4ccccc34)NC(=O)[C@H]([C@@H](C)O)NC(=O)[C@@H](CCN)NC2=O)[C@@H](C)O)CCNC(=O)[C@H]([C@@H](C)O)NC(=O)[C@H](CCN)NC(=O)[C@H](CCN)NC1=O [Ex. 182] (I: H-VTYCE[dDab]TWC[Tle]AS-NH2 / II: [Dab]T[Dab][Dab][Dab][dL]L[Dab][Dab]T; disulfide I:4-I:9; amide I:5-II:N; lactam II:4-II:C)	<1
0.25 (≈ 0.105 µM)	0.125 (≈ 0.0524 µM)	0.25 (≈ 0.105 µM)	0.5 (≈ 0.209 µM)	0.125 (≈ 0.0524 µM)	0.25 (≈ 0.105 µM)	0.5 (≈ 0.209 µM)	4 (≈ 1.68 µM)	–	–	–	–	CC(C)C[C@@H]1NC(=O)[C@@H](CC(C)C)NC(=O)[C@H](CCN)NC(=O)[C@@H](NC(=O)[C@H](CN)NC(=O)[C@@H](NC(=O)[C@H](CCN)NC(=O)CC[C@H]2NC(=O)[C@H](CCCN)NC(=O)[C@H](CCN)NC(=O)[C@H](Cc3ccc(O)cc3)NC(=O)[C@@H](NC(=O)[C@@H](O)C(C)C)CSSC[C@@H](C(=O)NC(CO)CO)NC(=O)[C@H](C(C)(C)C)NC(=O)[C@H](CO)NC(=O)[C@H](Cc3c[nH]c4ccccc34)NC(=O)[C@H]([C@@H](C)O)NC2=O)[C@@H](C)O)CCNC(=O)[C@H]([C@@H](C)O)NC(=O)[C@H](CCN)NC(=O)[C@H](CCN)NC1=O [Ex. 163] (I: H-[Hiv]CY[Dab][Orn][dE]TWS[Tle]C-{NHCH(CH2OH)2} / II: [Dab]T[Dap][Dab][Dab][dL]L[Dab][Dab]T; disulfide I:2-I:11; amide I:6-II:N; lactam II:4-II:C)	1
0.0625 (≈ 0.0261 µM)	0.03125 (≈ 0.013 µM)	0.03125 (≈ 0.013 µM)	0.0625 (≈ 0.0261 µM)	0.03125 (≈ 0.013 µM)	0.03125 (≈ 0.013 µM)	0.0625 (≈ 0.0261 µM)	0.0625 (≈ 0.0261 µM)	–	–	–	–	CC[C@@H]1NC(=O)[C@@H](CC(C)C)NC(=O)[C@H](CCN)NC(=O)[C@@H](NC(=O)[C@H](CN)NC(=O)[C@@H](NC(=O)[C@H](CCN)NC(=O)CC[C@@H]2NC(=O)[C@H](CO)NC(=O)[C@H](Cc3ccc(O)cc3)NC(=O)[C@@H](NC(=O)[C@@H](NC(C)=O)C(C)C)CSSC[C@@H](C(=O)N[C@H](C(N)=O)[C@@H](C)O)NC(=O)[C@H](C(C)(C)C)NC(=O)[C@H](CO)NC(=O)[C@H](Cc3c[nH]c4ccccc34)NC(=O)[C@H](CCN)NC(=O)[C@@H](CCN)NC2=O)[C@@H](C)O)CCNC(=O)[C@H]([C@@H](C)O)NC(=O)[C@H](CCN)NC(=O)[C@H](CCN)NC1=O [Ex. 256] (I: Ac-VCYSE[dDab][Dab]WS[Tle]CT-NH2 / II: [Dab]T[Dap][Dab][Dab][dL][Abu][Dab][Dab]T; disulfide I:2-I:11; amide I:5-II:N; lactam II:4-II:C)	1
0.5 (≈ 0.216 µM)	0.0625 (≈ 0.027 µM)	0.25 (≈ 0.108 µM)	1 (≈ 0.431 µM)	0.0625 (≈ 0.027 µM)	0.125 (≈ 0.0539 µM)	1 (≈ 0.431 µM)	0.25 (≈ 0.108 µM)	–	–	–	–	CC(=O)N[C@H](C(=O)N[C@H]1CCCNC(=O)[C@@H](C(C)C)NC(=O)[C@H](C(C)(C)C)NC(=O)[C@H](CO)NC(=O)[C@H](Cc2c[nH]c3ccccc23)NC(=O)[C@H](CCO)NC(=O)[C@@H](CCN)NC(=O)[C@H](CCC(=O)N[C@@H](CCN)C(=O)N[C@H](C(=O)N[C@@H](CN)C(=O)N[C@H]2CCNC(=O)[C@H]([C@@H](C)O)NC(=O)[C@H](CCN)NC(=O)[C@H](CCN)NC(=O)[C@H](CC(C)C)NC(=O)[C@@H](CC(C)C)NC(=O)[C@H](CCN)NC2=O)[C@@H](C)O)NC(=O)[C@H](CO)NC(=O)[C@H](Cc2ccc(O)cc2)NC1=O)C(C)C [Ex. 27] (I: Ac-V[Orn]YSE[dDab][hSer]WS[Tle][dV] / II: [Dab]T[Dap][Dab][Dab][dL]L[Dab][Dab]T; lactam I:2-I:C, II:4-II:C; amide I:5-II:N)	<1
–	–	–	0.25 (≈ 0.104 µM)	–	0.0625 (≈ 0.026 µM)	0.5 (≈ 0.208 µM)	0.125 (≈ 0.052 µM)	0.125	0.0625	0.125	0.0625	CC[C@H](C)[C@@H]1NC(=O)[C@H](CO)NC(=O)[C@H](Cc2c[nH]c3ccccc23)NC(=O)[C@H](CO)NC(=O)[C@@H](CCN)NC(=O)[C@H](CCC(=O)N[C@@H](CCN)C(=O)N[C@H](C(=O)N[C@@H](CN)C(=O)N[C@H]2CCNC(=O)[C@H]([C@@H](C)O)NC(=O)[C@H](CCN)NC(=O)[C@H](CCN)NC(=O)[C@H](CC(C)C)NC(=O)[C@@H](CC(C)C)NC(=O)[C@H](CCN)NC2=O)[C@@H](C)O)NC(=O)[C@H](CCN)NC(=O)[C@H](Cc2ccc(O)cc2)NC(=O)[C@@H](NC(=O)[C@@H](NC(C)=O)C(C)C)CCNC(=O)C[C@@H](C(=O)N[C@@H](CO)C(N)=O)NC1=O [Ex. 323] (I: Ac-V[Dab]Y[Dab]E[dDab]SWSIDS-NH2 / II: [Dab]T[Dap][Dab][Dab][dL]L[Dab][Dab]T; lactam I:2-I:11, II:4-II:C; amide I:5-II:N)	<1
